Experimental data published in PubChem BioAssay AID493092 (Sanford-Burnham Center for Chemical Genomics, 2011).
pIC50: −log10 of the molar value. Active and inactive are the calls of the source.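 Rule for the calls: active = averaged IC50 for reducing per-cell lipid droplet stain intensity under a set limit; inactive = the rest.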

What follows are molecules tested on AML12 mouse hepatocytes, BODIPY lipid droplet imaging (assay: inhibitors of hepatocyte lipid droplet formation, SAR follow-up, imaging, AML12 mouse hepatocytes, BODIPY staining (AID 493092)). Conditions: cells fed 100 µM oleate overnight.

Row | SMILES | pIC50 | IC50
1 | CCOc1ccc(CCNC(=O)CN2C(=O)c3cccnc3Oc3ccc(C)cc32)cc1OCC | 6.77 | –
2 | CC1CC(C)CN(C(=O)c2ccc3c(c2NCCO)C(=O)c2ccccc2C3=O)C1 (stereo not given) | 6.11 | –
3 | COc1ccc(CN(C)C(=O)CNC(=O)Cc2cccc3ccccc23)c(OC)c1OC | 5.63 | –
4 | Cc1ccc(C(=O)OC(C)C(=O)Nc2nc(-c3cccc([N+](=O)[O-])c3)cs2)cc1 (stereo not given) | – | 17000 nM (inactive)
5 | COc1ccc(C)cc1CN(C)C(=O)C(C)NC(=O)Cc1cccc2ccccc12 (stereo not given) | 5.98 | –
6 | CCCc1cc(N2CCOCC2)n2nc(C)c(-c3ccccc3)c2n1 | 6.77 | –
7 | COc1ccc(CNC(=O)CN2C(=O)NC(C)(c3cccc4ccccc34)C2=O)cc1OC (stereo not given) | 5.93 | –
8 | Cc1ccc(-n2nc3c(=O)n(CC(=O)NC(C)CCc4ccccc4)nc(C)c3c2C)cc1 (stereo not given) | 6.38 | –
9 | CCCc1cc(N2CCCC2)n2nc(C)c(-c3ccccc3)c2n1 | 6.15 | –
10 | CCOc1ccc(C(=O)OC(C)C(=O)Nc2nc(-c3ccc(CC)cc3)cs2)cc1OCC (stereo not given) | > 7.20 | –
11 | COc1ccc(C(=O)OC(C)C(=O)Nc2cc(C(F)(F)F)ccc2Cl)c(OC)c1OC (stereo not given) | 6.36 | –
12 | Cc1ccc(-c2c(C)nn3c(N4CCOCC4)cc(C)nc23)cc1 | 6.61 | –
13 | O=C(Cc1cccc2ccccc12)NCC(=O)N1CCc2ccccc2C1 | – | > 32000 nM (inactive)
14 | COc1cc2c(cc1OC)CN(C(=O)CNC(=O)Cc1cccc3ccccc13)CC2 | 6.33 | –
15 | CCCc1cc(N2CCOCC2)n2ncc(-c3ccccc3)c2n1 | 5.60 | –
16 | CC(OC(=O)c1ccc(S(=O)(=O)C(F)F)cc1)C(=O)Nc1nc(-c2ccccc2)cs1 (stereo not given) | – | > 32000 nM (inactive)
17 | CCOc1ccccc1C(=O)NCC(=O)NCCCc1ccccc1 | – | > 32000 nM (inactive)
18 | Cc1cc(N2CCOCC2)n2nc(C)c(-c3ccccc3Cl)c2n1 | 6.39 | –
19 | COc1ccc(CCNC(=O)Nc2ccc(C(C)=O)cc2)cc1OC | – | > 32000 nM (inactive)
20 | Cc1cc(N2CCOCC2)n2ncc(-c3ccccc3)c2n1 | 5.51 | –

Row | SMILES | pIC50 | IC50
21 | COc1ccc(CCNC(=O)Nc2ccccc2C(F)(F)F)cc1OC | – | > 32000 nM (inactive)
22 | CC1CCCN(C(=O)c2ccc3c(c2NCCO)C(=O)c2ccccc2C3=O)C1 (stereo not given) | 5.65 | –
23 | CN(Cc1ccc2c(c1)OCO2)C(=O)CNC(=O)Cc1cccc2ccccc12 | – | > 32000 nM (inactive)
24 | COc1ccc(CCNC(=O)Nc2cc(F)c(F)cc2Cl)cc1OC | – | > 32000 nM (inactive)
25 | Cc1ccc(-c2cnn3c(N4CCOCC4)cc(C)nc23)cc1 | – | 10600 nM (inactive)
26 | CC(OC(=O)c1ccc(O)cc1)C(=O)Nc1nc(-c2ccccc2)cs1 (stereo not given) | – | > 32000 nM (inactive)
27 | Cc1ccccc1C(=O)NCC(=O)NCCC(c1ccccc1)c1ccccc1 | – | > 32000 nM (inactive)
28 | COc1cc(NC(=O)c2cccs2)c(OC)cc1NC(=O)CCC(=O)Nc1cc(C)cc(C)c1 | 7.06 | –
29 | CCc1ccc(NC(=O)CCC(=O)Nc2cc(OC)c(NC(=O)c3cccs3)cc2OC)cc1 | 6.47 | –
30 | CCOc1ccc(CCNC(=O)CN2CCN(Cc3ccccc3C)C2=O)cc1OCC | 6.26 | –
31 | Cc1cc(C)n(-c2ccc(C(=O)OC(C)C(=O)Nc3nc(-c4ccccc4)cs3)cc2)n1 (stereo not given) | – | > 32000 nM (inactive)
32 | CCOc1ccc(CCNC(=O)c2cc(-c3ccccc3)c(N3CCOCC3)s2)cc1OCC | > 7.20 | –
33 | CCOc1ccc(CCNC(=O)CCc2nc(-c3ccc(OC)cc3)no2)cc1OCC | 6.52 | –
34 | CC(OC(=O)c1cccc([N+](=O)[O-])c1)C(=O)Nc1nc(-c2ccccc2)cs1 (stereo not given) | – | > 32000 nM (inactive)
35 | Cc1cc(N2CCOCC2)n2nc(C)c(-c3ccccc3)c2n1 | 6.66 | –
36 | CCOc1ccc(CN(C)C(=O)CNC(=O)c2ccc3ccccc3c2)cc1OC | 6.40 | –
37 | CCOc1cc2c(cc1OCC)CN(C(=O)CNC(=O)c1ccc3ccccc3c1)CC2 | 6.51 | –
38 | COc1ccc(NC(=O)CCC(=O)Nc2cc(OC)c(NC(=O)c3cccs3)cc2OC)cc1 | 6.20 | –
39 | CC(=O)Nc1ccc(-c2csc(NC(=O)Cc3cccc(F)c3)n2)cc1 | 5.57 | –
40 | CCOc1ccc(CCNC(=O)Cn2ncn3nc(-c4ccc(OC)cc4)cc3c2=O)cc1OCC | 6.92 | –
